Reference: BindingDB's records for doi:10.1002/ps.3406 (2013)
pIC50: −log10 of the molar value.

Target: Ryanodine receptor (Myzus persicae)
Test: Binding affinity to Myzus persicae (green peach aphid) ryanodine receptor by radioligand binding assay

Structure (SMILES): CNC(=O)c1cc(Cl)cc(C)c1NC(=O)c1cc(Br)nn1-c1ncccc1Cl [3-bromo-N-(4-chloro-2-methyl-6-(methylcarbamoyl)phenyl)-1-(3-chloropyridin-2-yl)-1H-pyrazole-5-carboxamide]
- pIC50: 8.70
